Where two headings read alike, the source gives them in different places.

One series has as its system HIV-1 (IIIB). The series is described as follows: Antiviral assay in MT-4 cells (HIV MT-4 antiviral assay). The note with it: Human immunodeficiency virus 1, IIIB, MT4, 120 h, HIV-1 (IIIB) in MT-4 cells, 5 days incubation; read-out: EC50. Format: cell-based. The method, boiled down:
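Read-out is CellTiter-Glo chemiluminescence after 5-day culture at 37° C, giving protection of MT-4 cells from HIV-1 IIIB cytopathicity. Compounds tested in 1:3 dilution series in complete RPMI; controls were no drug, mock infection and 5 μM AZT.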

Series [1] can be described thus: Cytotoxicity assay in MT-4 cells. Format: cell-based, human. Particulars: human, uninfected MT-4 cells, 5 days incubation; read-out: CC50. The method, boiled down: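 For cytotoxicity, uninfected MT-4 cells were incubated with compounds 5 days at 37 °C, with 10 μM puromycin marking base cytotoxicity. Parallel plates used HIV-1 IIIB-infected (1:250 stock dilution) or mock cells with 5 μM AZT and no-drug controls. Read-out: CellTiter-Glo chemiluminescence.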

The test system of the next series is pLai RLuc reporter virus. The series is described as follows: microbe, parasite or virus in culture. Particulars: Human immunodeficiency virus 1, 72 h. The class given is cell-based, HIV. Summed up: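 Read-out is Renilla luciferase after 72 h at 37 °C in MT-4 cells infected 2 h beforehand with pLai RLuc reporter virus; compounds diluted 1:3.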
Where [2] appears, read: read-out: Antiviral Serum Shift RLuc 50% HS, HS/CCM (RPMI media, 10% FBS, 50% HS, 1% P/S), 72-h incubation.
[3] abbreviates: read-out: Antiviral Serum Shift RLuc CCM, CCM (RPMI media, 10% FBS, 1% P/S), 72-h incubation.

Turning to `C[C@@H]1N2C[C@H](CCC1(C)F)n1cc(C(=O)NCc3c(F)cc(F)cc3F)c(=O)c(O)c1C2=O` (stereo partly drawn) [Example 144-1, (3S,7S)-4-fluoro-12-hydroxy-3,4-dimethyl-1,11-dioxo-N-(2,4,6-trifluorobenzyl)-1,4,5,6,7,11-hexahydro-3H-2,7-methanopyrido[1,2-a][1,4]diazonine-10-carboxamide], the EC50 in the series with HIV-1 (IIIB) amounted to 1.65 nM; with pLai RLuc reporter virus (setting [2]) it was 2.63 nM; with pLai RLuc reporter virus (setting [3]) it was 0.285 nM. In series [1], the cytotoxic concentration (CC50) at 5 days was found to be 9180 nM.
The like results for `O=C(NCc1c(F)cc(F)cc1F)c1cn2c(c(O)c1=O)C(=O)N1CCc3ccc(Cl)cc3[C@H]2C1` [Example 138, (13S)-11-chloro-4-hydroxy-3,5-dioxo-N-(2,4,6-trifluorobenzyl)-3,5,8,13-tetrahydro-7H-6,13-methanobenzo[g]pyrido[1,2-a][1,4]diazonine-2-carboxamide] were, in that order, 3.17 nM, 8.7 nM, 0.708 nM and 5020 nM.
For `C[C@H]1CCC[C@H]2CN1C(=O)c1c(O)c(=O)c(C(=O)NCc3c(F)cc(F)cc3F)cn12` [Example 98, (3S, 7S)-12-hydroxy-3-methyl-1,11-dioxo-N-(2,4,6-trifluorobenzyl)-1,4,5,6,7,11-hexahydro-3H-2,7-methanopyrido[1,2-a][1,4]diazonine-10-carboxamide] the same measures were 1.27 nM, 19.2 nM, 0.284 nM and 14300 nM.
For `C[C@@H]1CCC[C@@H]2CN1C(=O)c1c(O)c(=O)c(C(=O)NCc3ccc(F)cc3F)cn12` [Example 52-3, (3R, 7R)—N-(2,4-difluorobenzyl)-12-hydroxy-3-methyl-1,11-dioxo-1,4,5,6,7,11-hexahydro-3H-2,7-methanopyrido[1,2-a][1,4]diazonine-10-carboxamide] the same measures were 3.05 nM, 114 nM, 0.589 nM and 15500 nM.
For `O=C(NCc1c(F)cc(F)cc1F)c1cn2c(c(O)c1=O)C(=O)N1C[C@@H]2CCC(F)(F)C1` [Example 3-2, (7S)-4,4-difluoro-12-hydroxy-1,11-dioxo-N-(2,4,6-trifluorobenzyl)-1,4,5,6,7,11-hexahydro-3H-2,7-methanopyrido[1,2-a][1,4]diazonine-10-carboxamide], the EC50 with HIV-1 (IIIB) is 5.4 nM; with pLai RLuc reporter virus (setting [2]) it was 3.86 nM; with pLai RLuc reporter virus (setting [3]), 1.6 nM. Besides, in series [1], the half-maximal cytotoxic concentration (CC50) at 5 days was > 43300 nM.
The like results for `O=C(NCc1c(F)cc(F)cc1F)c1cn2c(c(O)c1=O)C(=O)N1CC[C@@H](F)C[C@H]2C1` [Example 73-1, (5R,7S)-5-fluoro-12-hydroxy-1,11-dioxo-N-(2,4,6-trifluorobenzyl)-1,4,5,6,7,11-hexahydro-3H-2,7-methanopyrido[1,2-a][1,4]diazonine-10-carboxamide] were, in that order, 5.2 nM, 0.897 nM, 0.715 nM and > 50000 nM.
Turning to `O=C(NCc1ccc(F)cc1F)c1cn2c(c(O)c1=O)C(=O)N1CC[C@H](F)C[C@@H]2C1` [Example 56-3, (5S, 7R)—N-(2,4-difluorobenzyl)-5-fluoro-12-hydroxy-1,11-dioxo-1,4,5,6,7,11-hexahydro-3H-2,7-methanopyrido[1,2-a][1,4]diazonine-10-carboxamide], the figures for the EC50 with HIV-1 (IIIB), in the series on pLai RLuc reporter virus (setting [2]) and in the series on pLai RLuc reporter virus (setting [3]) were 5.24 nM, 13.3 nM and 0.312 nM, respectively. Besides, the CC50 at 5 days in series [1] amounted to 16100 nM.
For `O=C(NCc1ccc(F)cc1F)c1cn2c(c(O)c1=O)C(=O)N1CCCC3(CC3)[C@@H]2C1` [Example 57-2, (7′R)—N-(2,4-difluorobenzyl)-12′-hydroxy-1′,11′-dioxo-1′,4′,5′,11′-tetrahydro-3′H,7′H-spiro[cyclopropane-1,6′-[2,7]methanopyrido[1,2-a][1,4]diazonine]-10′-carboxamide] the same measures were 1.77 nM, 133 nM, 0.396 nM and 8910 nM.
The like results for `O=C(NCc1ccc(F)cc1F)c1cn2c(c(O)c1=O)C(=O)N1CCC[C@@H]3C[C@]32C1` [Example 65-1, (1aR,11aR)—N-(2,4-difluorobenzyl)-7-hydroxy-6,8-dioxo-1a,2,3,4,6,8-hexahydro-1H-5,11a-methanocyclopropa[h]pyrido[1,2-a][1,4]diazonine-9-carboxamide] were, in that order, 1.73 nM, 28.5 nM, 0.297 nM and 8800 nM.
The like results for `O=C(NCc1ccc(F)c(Cl)c1F)c1cn2c(c(O)c1=O)C(=O)N1CCCC(F)(F)[C@@H]2C1` (single isomer, unassigned) [Example 117-2] were, in that order, 3.53 nM, 1270 nM, 0.603 nM and 15700 nM.
Turning to `O=C(NCc1ccc(F)c(Cl)c1F)c1cn2c(c(O)c1=O)C(=O)N1C[C@@H]2CCc2ccc(F)cc21` [Example 90-2, (12S)—N-(3-chloro-2,4-difluorobenzyl)-3-fluoro-7-hydroxy-6,8-dioxo-6,8,13,14-tetrahydro-12H-5,12-methanobenzo[e]pyrido[1,2-a][1,4]diazonine-9-carboxamide], the EC50 in the series on HIV-1 (IIIB) amounted to 2.42 nM; in the series on pLai RLuc reporter virus (setting [2]) it was 1.22 nM; with pLai RLuc reporter virus (setting [3]), 0.361 nM. Also, the CC50 at 5 days in series [1] was > 20800 nM.
For `O=C(NCc1c(F)cc(F)cc1F)c1cn2c(c(O)c1=O)C(=O)N1C[C@H]3CC[C@H](C3)[C@H]2C1` [Example 41-1, (4S,7R,8S)-13-hydroxy-1,12-dioxo-N-(2,4,6-trifluorobenzyl)-1,3,4,5,6,7,8,12-octahydro-2,8:4,7-dimethanopyrido[1,2-a][1,4]diazecine-11-carboxamide] the same measures were 1.6 nM, 6.64 nM, 0.335 nM and 15600 nM.
For `C[C@H]1CC[C@H]2CN(C1)C(=O)c1c(O)c(=O)c(C(=O)NCc3c(F)cc(F)cc3F)cn12` [Example 137-1, (4S,7S)-12-hydroxy-4-methyl-1,11-dioxo-N-(2,4,6-trifluorobenzyl)-1,4,5,6,7,11-hexahydro-3H-2,7-methanopyrido[1,2-a][1,4]diazonine-10-carboxamide] the same measures were 2.63 nM, 0.707 nM, 0.184 nM and 14700 nM.
The like results for `C[C@@H]1N2C[C@H](CCC1(F)F)n1cc(C(=O)NCc3c(F)cc(F)cc3F)c(=O)c(O)c1C2=O` [Example 154-2, (3S,7S)-4,4-difluoro-12-hydroxy-3-methyl-1,11-dioxo-N-(2,4,6-trifluorobenzyl)-1,4,5,6,7,11-hexahydro-3H-2,7-methanopyrido[1,2-a][1,4]diazonine-10-carboxamide] were, in that order, 1.94 nM, 7.14 nM, 0.306 nM and 15200 nM.
Turning to `O=C(NCc1ccc(F)cc1F)c1cn2c(c(O)c1=O)C(=O)N1CCCC(F)[C@H]2C1` (stereo partly drawn) [Example 172-2, (7R)—N-(2,4-difluorobenzyl)-6-fluoro-12-hydroxy-1,11-dioxo-1,4,5,6,7,11-hexahydro-3H-2,7-methanopyrido[1,2-a][1,4]diazonine-10-carboxamide], the results for the EC50 with HIV-1 (IIIB), with pLai RLuc reporter virus (setting [2]) and with pLai RLuc reporter virus (setting [3]) were 1.47 nM, 2.62 nM and 0.417 nM, respectively. Besides, in series [1], the CC50 at 5 days came out at 12800 nM.
On to `O=C(NCc1ccc(F)cc1F)c1cn2c(c(O)c1=O)C(=O)N1CC/C=C\C[C@H]2C1` [Example 44-2, (8S,Z)—N-(2,4-difluorobenzyl)-13-hydroxy-1,12-dioxo-1,3,4,7,8,12-hexahydro-2,8-methanopyrido[1,2-a][1,4]diazecine-11-carboxamide], for which the EC50 came to 2.36 nM in the series on HIV-1 (IIIB), 36.8 nM in the series on pLai RLuc reporter virus (setting [2]) and 0.264 nM in the series with pLai RLuc reporter virus (setting [3]). Besides, the CC50 at 5 days in series [1] is 15100 nM.
The like results for `O=C(NCc1c(F)cc(F)cc1F)c1cn2c(c(O)c1=O)C(=O)N1C[C@@H]2CSc2ccccc21` [Example 94, (6R)-1-hydroxy-2,14-dioxo-N-(2,4,6-trifluorobenzyl)-2,6,7,14-tetrahydro-6,13-methanobenzo[b]pyrido[2,1-f][1,4,7]thiadiazonine-3-carboxamide] were, in that order, 1.15 nM, 1.73 nM, 0.411 nM and 13700 nM.
For the compound `O=C(NCc1c(F)cc(F)cc1F)c1cn2c(c(O)c1=O)C(=O)N1CCOC[C@@H]2C1` [Example 19, (7S)-12-hydroxy-1,11-dioxo-N-(2,4,6-trifluorobenzyl)-1,3,4,6,7,11-hexahydro-2,7-methanopyrido[1,2-d][1,4,7]oxadiazonine-10-carboxamide], the EC50 in the series with HIV-1 (IIIB) stood at 4 nM; in the series on pLai RLuc reporter virus (setting [2]), 4.35 nM; in the series with pLai RLuc reporter virus (setting [3]) it was 1.21 nM. For the same compound, in series [1], the cytotoxic concentration (CC50) at 5 days is > 50000 nM.
